Assay results taken from patent publication US11957687B2 (REGENERON PHARMACEUTICALS, INC., priority 2019, dated 2024).

These compounds were tested against HSD17B13 (Homo sapiens (Human), UniProt Q7Z5P4) (assay: HSD17B13 enzymatic inhibition assay (150 nM or 50 nM HSD17B13)). Settings: 50 nM HSD17B13; read-out: Inhibition of 50 nM of HSD17B13 IC50.
Format: biochemical

Sequence of HSD17B13 (Q7Z5P4 other isoform, or with tags, fused parts or gaps): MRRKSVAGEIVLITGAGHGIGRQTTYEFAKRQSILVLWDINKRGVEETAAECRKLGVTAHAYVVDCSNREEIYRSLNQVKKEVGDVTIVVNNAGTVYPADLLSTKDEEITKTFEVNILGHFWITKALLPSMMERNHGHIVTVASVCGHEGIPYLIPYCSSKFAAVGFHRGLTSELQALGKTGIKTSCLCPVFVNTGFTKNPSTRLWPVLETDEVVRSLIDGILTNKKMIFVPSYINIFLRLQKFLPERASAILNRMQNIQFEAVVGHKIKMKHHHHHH

CCc1ccc2c(c1)Oc1cccc(CC)c1C2NC(=O)c1ccc(C(F)(F)F)[nH]c1=O (centres unmarked) [Compound 142, N-(1,6-diethyl-9H-xanthen-9-yl)-2-oxo-6-(trifluoromethyl)-1,2-dihydropyridine-3-carboxamide] and C=Cc1ccc2c(c1)Oc1cccc(C=C)c1C2NC(=O)c1ccc(C(F)(F)F)[nH]c1=O (centres unmarked) [Compound 139, N-(1,6-divinyl-9H-xanthen-9-yl)-2-oxo-6-(trifluoromethyl)-1,2-dihydropyridine-3-carboxamide] are within 1.5-fold of each other in IC50: 540 nM for the first, 510 nM for the second.

Compared with Cc1ccc(C(NC(=O)c2c(C(F)(F)F)cc[nH]c2=O)c2ccc(C)cc2)cc1 [Compound 122, N-(di-p-tolylmethyl)-2-oxo-4-(trifluoromethyl)-1,2-dihydropyridine-3-carboxamide], Cc1ccc(C(NC(=O)c2cc(CCO)c(C(F)(F)F)[nH]c2=O)c2ccc(C)cc2)cc1 [Compound 120, N-(di-p-tolylmethyl)-5-(2-hydroxyethyl)-2-oxo-6-(trifluoromethyl)-1,2-dihydropyridine-3-carboxamide] is lower in IC50: greater than 10000 nM for the first, 870 nM for the second. The second is the more potent here.

Compared with Cc1ccc2c(c1O)CCCC2NC(=O)c1ccc(C(F)(F)F)[nH]c1=O (centres unmarked) [Compound 231, N-(5-hydroxy-6-methyl-1,2,3,4-tetrahydronaphthalen-1-yl)-2-oxo-6-(trifluoromethyl)-1,2-dihydropyridine-3-carboxamide], CCCC1CC(NC(=O)c2ccc(C(F)(F)F)[nH]c2=O)c2cc(C)ccc2S1 (centres unmarked) [Compound 382, N-(6-methyl-2-propylthiochroman-4-yl)-2-oxo-6-(trifluoromethyl)-1,2-dihydropyridine-3-carboxamide] is 4.3-fold higher in IC50: 30 nM for the first, 130 nM for the second.

Compared with O=C(NC(c1ccccc1)c1ccc(C2COC2)cc1)c1ccc(C(F)(F)F)[nH]c1=O (centres unmarked) [Compound 99, N-((4-(oxetan-3-yl)phenyl)(phenyl)methyl)-2-oxo-6-(trifluoromethyl)-1,2-dihydropyridine-3-carboxamide], C/C=C/c1ccc(C(NC(=O)c2ccc(C(F)(F)F)[nH]c2=O)c2ccccc2)cc1 (centres unmarked) [Compound 29, (E)-2-oxo-N-(phenyl(4-(prop-1-en-1-yl)phenyl)methyl)-6-(trifluoromethyl)-1,2-dihydropyridine-3-carboxamide] is 5.8-fold lower in IC50: 2720 nM for the first, 470 nM for the second. The second is the more potent here.

O=C(NC(c1ccccc1)c1ccc2c(c1)NCCC2)c1ccc(C(F)(F)F)[nH]c1=O (centres unmarked) [Compound 110, 2-oxo-N-(phenyl(1,2,3,4-tetrahydroquinolin-7-yl)methyl)-6-(trifluoromethyl)-1,2-dihydropyridine-3-carboxamide] and O=C(NC(c1ccccc1)c1ccc2c(c1)OCC2)c1ccc(C(F)(F)F)[nH]c1=O (centres unmarked) [Compound 84, N-((2,3-dihydrobenzofuran-6-yl)(phenyl)methyl)-2-oxo-6-(trifluoromethyl)-1,2-dihydropyridine-3-carboxamide] are within 1.5-fold of each other in IC50: 840 nM for the first, 1040 nM for the second.

Going from O=C(NC1c2ccncc2Oc2ccc(O)cc21)c1ccc(C(F)(F)F)[nH]c1=O (centres unmarked) [Compound 318, N-(7-hydroxy-5H-chromeno[2,3-c]pyridin-5-yl)-2-oxo-6-(trifluoromethyl)-1,2-dihydropyridine-3-carboxamide] to O=C(NC1c2ccncc2Oc2cc(O)ccc21)c1ccc(C(F)(F)F)[nH]c1=O (centres unmarked) [Compound 320, N-(8-hydroxy-5H-chromeno[2,3-c]pyridin-5-yl)-2-oxo-6-(trifluoromethyl)-1,2-dihydropyridine-3-carboxamide], the IC50 falls from 7250 nM to 600 nM (12-fold).

Going from CCC[C@H]1Oc2cc(C)ccc2[C@H]1NC(=O)c1ccc(C(F)(F)F)[nH]c1=O [Compound 357, N-((2R,3R)-6-methyl-2-propyl-2,3-dihydrobenzofuran-3-yl)-2-oxo-6-(trifluoromethyl)-1,2-dihydropyridine-3-carboxamide] to Cc1ccc2[nH]cc(NC(=O)c3ccc(C(F)(F)F)[nH]c3=O)c2c1 [Compound 377, N-(5-methyl-1H-indol-3-yl)-2-oxo-6-(trifluoromethyl)-1,2-dihydropyridine-3-carboxamide], the IC50 rises from 1180 nM to 7770 nM (6.6-fold).

Compared with O=C(NC(c1ccccc1)c1ccc(N2CCNCC2)cc1)c1ccc(C(F)(F)F)[nH]c1=O (centres unmarked) [Compound 88, N-(phenyl(4-(piperazin-1-yl)phenyl)methyl)-2-oxo-6-(trifluoromethyl)-1,2-dihydropyridine-3-carboxamide], O=C(NC(c1ccccc1)c1cccc(CC(F)(F)F)c1)c1ccc(C(F)(F)F)[nH]c1=O (centres unmarked) [Compound 478, 2-oxo-N-(phenyl(3-(2,2,2-trifluoroethyl)phenyl)methyl)-6-(trifluoromethyl)-1,2-dihydropyridine-3-carboxamide] is lower in IC50: greater than 10000 nM for the first, 1410 nM for the second. The second is the more potent here.

Compared with Cc1ccc2c(c1)Oc1cc(C)ccc1C2NC(=O)c1cc(Oc2ccccc2)c(C(F)(F)F)[nH]c1=O [Compound 514, N-(3,6-dimethyl-9H-xanthen-9-yl)-2-oxo-5-phenoxy-6-(trifluoromethyl)-1,2-dihydropyridine-3-carboxamide], Cc1ccc2c(c1)Oc1cccc(C)c1C2NC(=O)c1cnc(C(F)(F)F)[nH]c1=O (centres unmarked) [Compound 193, N-(1,6-dimethyl-9H-xanthen-9-yl)-6-oxo-2-(trifluoromethyl)-1,6-dihydropyrimidine-5-carboxamide] is 51-fold higher in IC50: 20 nM for the first, 1020 nM for the second. The first is the more potent here.

Going from Cc1ccc(C(NC(=O)c2ccc(C(F)(F)F)[nH]c2=O)c2ccccc2S(C)(=O)=O)cc1 (centres unmarked) [Compound 450, N-((2-(methylsulfonyl)phenyl)(p-tolyl)methyl)-2-oxo-6-(trifluoromethyl)-1,2-dihydropyridine-3-carboxamide] to CC[C@@H](O)C[C@@H](NC(=O)c1ccc(C(F)(F)F)[nH]c1=O)c1ccc(C)cc1 [Compound 554, N-((1R,3R)-3-hydroxy-1-(p-tolyl)pentyl)-2-oxo-6-(trifluoromethyl)-1,2-dihydropyridine-3-carboxamide], the IC50 rises from 1100 nM to 2350 nM (2.1-fold). The first is the more potent here.

O=C(NC(c1ccc(Cl)cc1)c1ncccn1)c1ccc(C(F)(F)F)[nH]c1=O (centres unmarked) [Compound 71, N-((4-chlorophenyl)(pyrimidin-2-yl)methyl)-2-oxo-6-(trifluoromethyl)-1,2-dihydropyridine-3-carboxamide] and O=C(NC1c2ccccc2COc2ccccc21)c1ccc(C(F)(F)F)[nH]c1=O (centres unmarked) [Compound 137, N-(6,11-dihydrodibenzo[b,e]oxepin-11-yl)-2-oxo-6-(trifluoromethyl)-1,2-dihydropyridine-3-carboxamide] are within 1.5-fold of each other in IC50: 5850 nM for the first, 4190 nM for the second.

Compared with Cc1ccc2c(c1)Oc1cc(C)ccc1C2NC(=O)c1ccc(C(C)(C)C)nc1Cl [Compound 487, 6-(tert-butyl)-2-chloro-N-(3,6-dimethyl-9H-xanthen-9-yl)nicotinamide], CCCc1cc(C(=O)NC2c3ccc(Cl)cc3Oc3cccc(Cl)c32)c(=O)[nH]c1C(F)(F)F (centres unmarked) [Compound 179, N-(1,6-dichloro-9H-xanthen-9-yl)-2-oxo-5-propyl-6-(trifluoromethyl)-1,2-dihydropyridine-3-carboxamide] is lower in IC50: greater than 10000 nM for the first, 400 nM for the second.

First: C=Cc1cc(C(=O)NC2c3ccc(Cl)cc3Oc3cccc(Cl)c32)c(=O)[nH]c1C(F)(F)F (centres unmarked) [Compound 170, N-(1,6-dichloro-9H-xanthen-9-yl)-2-oxo-6-(trifluoromethyl)-5-vinyl-1,2-dihydropyridine-3-carboxamide]
Second: O=C(NC1c2ccccc2-c2ccccc21)c1cnc(Cc2ccccc2)[nH]c1=O [Compound 59, 2-benzyl-N-(9H-fluoren-9-yl)-6-oxo-1,6-dihydropyrimidine-5-carboxamide]
The IC50 of the first is lower: 350 nM for the first, greater than 10000 nM for the second. The first is the more potent here.
